Measured values published in paper PMC5686591, “Identification and Characterization of the Major Porin of Desulfovibrio vulgaris Hildenborough” (Journal of Bacteriology, 2017).

Target: T1, DVU0799 (Nitratidesulfovibrio vulgaris, UniProt Q72DY0)
T1 construct: gene DVU_0799; native protein purified from wild-type outer membranes (octyl glucoside), untagged; monomer about 50 kDa, homotrimer; reconstituted in proteoliposomes
T1 sequence (Q72DY0 24-466): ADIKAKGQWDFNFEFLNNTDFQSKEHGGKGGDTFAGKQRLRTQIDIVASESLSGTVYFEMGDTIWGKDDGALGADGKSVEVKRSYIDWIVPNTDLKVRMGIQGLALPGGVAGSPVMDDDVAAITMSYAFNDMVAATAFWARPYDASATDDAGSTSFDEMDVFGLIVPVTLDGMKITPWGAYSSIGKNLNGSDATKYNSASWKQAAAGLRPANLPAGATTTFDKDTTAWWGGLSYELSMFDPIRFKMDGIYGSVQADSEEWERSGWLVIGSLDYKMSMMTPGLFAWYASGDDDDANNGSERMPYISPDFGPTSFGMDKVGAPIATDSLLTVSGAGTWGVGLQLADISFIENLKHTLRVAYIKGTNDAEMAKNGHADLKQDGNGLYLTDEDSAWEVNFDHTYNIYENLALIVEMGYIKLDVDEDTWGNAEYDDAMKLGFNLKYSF
Experiment: liposome swelling assay (OD400), reconstituted proteoliposomes
Format: biochemical
Conditions: pore permeation (passive diffusion)

SMILES	relative permeability (scaling reference of the assay, about 20 mM solute)	relative permeability (relative to L-arabinose, 9 mM solute, 4 mM sodium NAD, 1 mM imidazole-NAD, pH 6.0)
OC1OC[C@H](O)[C@H](O)[C@H]1O (stereo partly drawn) [L-arabinose]	the permeability profile begins with that for L-arabinose at the upper limit	
O=C(O)[C@H](O)[C@@H](O)[C@H](O)[C@H](O)CO [D-gluconate]		purified DVU0799 were also surveyed for their permeability to two sugar acids, D-gluconate
